Test results reported in PubChem BioAssay (NCI).
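Growth conditions: 96-well plates. Treatment: test compound, 48 hours, 5 concentrations. Analysis: linear interpolation between bracketing concentrations; unreached endpoints set to highest concentration. The concentration for 50% growth inhibition is given as GI50. TGI: concentration producing complete growth inhibition.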

Key:
Test in all cases: DTP human tumour cell line panel, 48 h
786-0 renal = test system: 786-0 renal
NCI-H522 lung = test system: NCI-H522 lung
T-47D breast = test system: T-47D breast
SK-MEL-28 melanoma = test system: SK-MEL-28 melanoma
OVCAR-8 ovarian = test system: OVCAR-8 ovarian
HOP-62 NSCLC = test system: HOP-62 NSCLC
NCI-H460 lung = test system: NCI-H460 lung
MDA-MB-435 = test system: MDA-MB-435
HCC-2998 colon = test system: HCC-2998 colon
M14 melanoma = test system: M14 melanoma
KM12 colon = test system: KM12 colon
SF-539 CNS = test system: SF-539 CNS
OVCAR-3 ovarian = test system: OVCAR-3 ovarian
SNB-19 CNS = test system: SNB-19 CNS
HL-60(TB) leukemia = test system: HL-60(TB) leukemia
PC-3 prostate = test system: PC-3 prostate
MOLT-4 leukemia = test system: MOLT-4 leukemia
SK-MEL-5 melanoma = test system: SK-MEL-5 melanoma
SW-620 colon = test system: SW-620 colon
K-562 leukemia = test system: K-562 leukemia
NCI-H226 lung = test system: NCI-H226 lung
LOX IMVI melanoma = test system: LOX IMVI melanoma
SF-268 CNS = test system: SF-268 CNS
SF-295 CNS = test system: SF-295 CNS
MDA-MB-231 breast = test system: MDA-MB-231 breast
SK-MEL-2 melanoma = test system: SK-MEL-2 melanoma
U251 CNS = test system: U251 CNS
ACHN renal = test system: ACHN renal
CCRF-CEM leukemia = test system: CCRF-CEM leukemia
RPMI-8226 leukemia = test system: RPMI-8226 leukemia
CAKI-1 renal = test system: CAKI-1 renal
UACC-257 melanoma = test system: UACC-257 melanoma
IGROV1 ovarian = test system: IGROV1 ovarian
RXF 393 renal = test system: RXF 393 renal
HS 578T breast = test system: HS 578T breast
OVCAR-4 ovarian = test system: OVCAR-4 ovarian
BT-549 breast = test system: BT-549 breast
NCI-H23 lung = test system: NCI-H23 lung
OVCAR-5 ovarian = test system: OVCAR-5 ovarian
SK-OV-3 ovarian = test system: SK-OV-3 ovarian
SNB-75 CNS = test system: SNB-75 CNS
HCT-116 colon = test system: HCT-116 colon
SN12C renal = test system: SN12C renal
MALME-3M melanoma = test system: MALME-3M melanoma
COLO 205 colon = test system: COLO 205 colon
A549 NSCLC = test system: A549 NSCLC
TK-10 renal = test system: TK-10 renal
NCI/ADR-RES ovarian = test system: NCI/ADR-RES ovarian
HOP-92 NSCLC = test system: HOP-92 NSCLC
A498 renal = test system: A498 renal
MCF7 breast = test system: MCF7 breast
UACC-62 melanoma = test system: UACC-62 melanoma
HT29 colon = test system: HT29 colon
UO-31 renal = test system: UO-31 renal
DU-145 prostate = test system: DU-145 prostate
HCT-15 colon = test system: HCT-15 colon
SR leukemia = test system: SR leukemia

**Q.** What does the source list for `Cn1c(=O)c(Sc2ccccc2F)cc2cnc(NC3CCOCC3)nc21`?
**A.** GI50 (786-0 renal): > 25 µM; TGI (786-0 renal): > 25 µM; GI50 (NCI-H522 lung): > 25 µM; TGI (NCI-H522 lung): > 25 µM; GI50 (T-47D breast): > 25 µM; TGI (T-47D breast): > 25 µM; GI50 (SK-MEL-28 melanoma): > 25 µM; TGI (SK-MEL-28 melanoma): > 25 µM; GI50 (OVCAR-8 ovarian): > 25 µM; TGI (OVCAR-8 ovarian): > 25 µM; GI50 (HOP-62 NSCLC): > 25 µM; TGI (HOP-62 NSCLC): > 25 µM; GI50 (NCI-H460 lung): > 25 µM; TGI (NCI-H460 lung): > 25 µM; GI50 (MDA-MB-435): > 25 µM; TGI (MDA-MB-435): > 25 µM; GI50 (HCC-2998 colon): > 25 µM; TGI (HCC-2998 colon): > 25 µM; GI50 (M14 melanoma): > 25 µM; TGI (M14 melanoma): > 25 µM; GI50 (KM12 colon): > 25 µM; TGI (KM12 colon): > 25 µM; GI50 (SF-539 CNS): > 25 µM; TGI (SF-539 CNS): > 25 µM; GI50 (OVCAR-3 ovarian): > 25 µM; TGI (OVCAR-3 ovarian): > 25 µM; GI50 (SNB-19 CNS): > 25 µM; TGI (SNB-19 CNS): > 25 µM; GI50 (HL-60(TB) leukemia): > 25 µM; TGI (HL-60(TB) leukemia): > 25 µM; GI50 (PC-3 prostate): > 25 µM; TGI (PC-3 prostate): > 25 µM; GI50 (MOLT-4 leukemia): > 25 µM; TGI (MOLT-4 leukemia): > 25 µM; GI50 (SK-MEL-5 melanoma): > 25 µM; TGI (SK-MEL-5 melanoma): > 25 µM; GI50 (SW-620 colon): > 25 µM; TGI (SW-620 colon): > 25 µM; GI50 (K-562 leukemia): > 25 µM; TGI (K-562 leukemia): > 25 µM; GI50 (NCI-H226 lung): > 25 µM; TGI (NCI-H226 lung): > 25 µM; GI50 (LOX IMVI melanoma): > 25 µM; TGI (LOX IMVI melanoma): > 25 µM; GI50 (SF-268 CNS): > 25 µM; TGI (SF-268 CNS): > 25 µM; GI50 (SF-295 CNS): > 25 µM; TGI (SF-295 CNS): > 25 µM; GI50 (MDA-MB-231 breast): > 25 µM; TGI (MDA-MB-231 breast): > 25 µM; GI50 (SK-MEL-2 melanoma): > 25 µM; TGI (SK-MEL-2 melanoma): > 25 µM; GI50 (U251 CNS): > 25 µM; TGI (U251 CNS): > 25 µM; GI50 (ACHN renal): > 25 µM; TGI (ACHN renal): > 25 µM; GI50 (CCRF-CEM leukemia): > 25 µM; TGI (CCRF-CEM leukemia): > 25 µM; GI50 (RPMI-8226 leukemia): > 25 µM; TGI (RPMI-8226 leukemia): > 25 µM; GI50 (CAKI-1 renal): > 25 µM; TGI (CAKI-1 renal): > 25 µM; GI50 (UACC-257 melanoma): > 25 µM; TGI (UACC-257 melanoma): > 25 µM; GI50 (IGROV1 ovarian): > 25 µM; TGI (IGROV1 ovarian): > 25 µM; GI50 (RXF 393 renal): > 25 µM; TGI (RXF 393 renal): > 25 µM; GI50 (HS 578T breast): > 25 µM; TGI (HS 578T breast): > 25 µM; GI50 (OVCAR-4 ovarian): > 25 µM; TGI (OVCAR-4 ovarian): > 25 µM; GI50 (BT-549 breast): > 25 µM; TGI (BT-549 breast): > 25 µM; GI50 (NCI-H23 lung): > 25 µM; TGI (NCI-H23 lung): > 25 µM; GI50 (OVCAR-5 ovarian): > 25 µM; TGI (OVCAR-5 ovarian): > 25 µM; GI50 (SK-OV-3 ovarian): > 25 µM; TGI (SK-OV-3 ovarian): > 25 µM; GI50 (SNB-75 CNS): > 25 µM; TGI (SNB-75 CNS): > 25 µM; GI50 (HCT-116 colon): > 25 µM; TGI (HCT-116 colon): > 25 µM; GI50 (SN12C renal): > 25 µM; TGI (SN12C renal): > 25 µM; GI50 (MALME-3M melanoma): > 25 µM; TGI (MALME-3M melanoma): > 25 µM; GI50 (COLO 205 colon): > 25 µM; TGI (COLO 205 colon): > 25 µM; GI50 (A549 NSCLC): > 25 µM; TGI (A549 NSCLC): > 25 µM; GI50 (TK-10 renal): > 25 µM; TGI (TK-10 renal): > 25 µM; GI50 (NCI/ADR-RES ovarian): > 25 µM; TGI (NCI/ADR-RES ovarian): > 25 µM; GI50 (HOP-92 NSCLC): > 25 µM; TGI (HOP-92 NSCLC): > 25 µM; GI50 (A498 renal): > 25 µM; TGI (A498 renal): > 25 µM; GI50 (MCF7 breast): > 25 µM; TGI (MCF7 breast): > 25 µM; GI50 (UACC-62 melanoma): > 25 µM; TGI (UACC-62 melanoma): > 25 µM; GI50 (HT29 colon): > 25 µM; TGI (HT29 colon): > 25 µM; GI50 (UO-31 renal): > 25 µM; TGI (UO-31 renal): > 25 µM; GI50 (DU-145 prostate): > 25 µM; TGI (DU-145 prostate): > 25 µM; GI50 (HCT-15 colon): > 25 µM; TGI (HCT-15 colon): > 25 µM; GI50 (SR leukemia): > 25 µM; TGI (SR leukemia): > 25 µM
